The numbers were not newly measured in patent publication US11865201B2, “Product for dyeing keratinous material, containing aminosilicone, a chromophoric compound and ethoxylated fatty acid ester” (Henkel AG & Co. KGaA, priority 2019, dated 2024), which cites them from elsewhere.

The conditions of this series: 25° C.

For the molecule `CCN(Cc1cccc(S(=O)(=O)[O-])c1)c1ccc(C(=C2C=CC(=[N+](CC)Cc3cccc(S(=O)(=O)[O-])c3)C=C2)c2ccccc2S(=O)(=O)[O-])cc1.[Na+].[Na+]` [Acid Blue 9], the solubility in water result is given as “more than 20 wt. %”.

As to `O=S(=O)([O-])c1ccc(N=Nc2c(O)ccc3ccccc23)cc1.[Na+]` [Acid Orange 7, sodium salt of 4-[(2-hydroxy-1-naphthyl)azo]benzene sulphonate], the solubility in water entry is “more than 7 g/L”.

In the case of `Nc1cc(S(=O)(=O)[O-])cc2cc(S(=O)(=O)[O-])c(N=Nc3ccccc3)c(O)c12.[Na+].[Na+]` [Acid Red 33, diantrium salt of 5-amino-4-hydroxy-3-(phenylazo)-naphthalene-2,7-disulphonate], the solubility in water is 2500 µg/mL.

For `O=C([O-])c1c(Cl)c(Cl)c(Cl)c(Cl)c1-c1c2c(Br)cc(=O)c(Br)c-2oc2c(Br)c(O)cc(Br)c12.O=C([O-])c1c(Cl)c(Cl)c(Cl)c(Cl)c1-c1c2c(Br)cc(=O)c(Br)c-2oc2c(Br)c(O)cc(Br)c12.[Na+].[Na+]` [Acid Red 92, disodium salt of 3,4,5,6-tetrachloro-2-(1,4,5,8-tetrabromo-6-hydroxy-3-oxoxanthen-9-yl)benzoic acid], the solubility in water entry is on record as “greater than 10 g/L”.

For the molecule `O=C([O-])C1=NN(c2ccc(S(=O)(=O)[O-])cc2)C(=O)C1N=Nc1ccc(S(=O)(=O)[O-])cc1.[Na+].[Na+].[Na+]` (centres unmarked) [Acid Yellow 23, trisodium salt of 4,5-dihydro-5-oxo-1-(4-sulfophenyl)-4-((4-sulfophenyl)azo)-1H-pyrazole-3-carboxylic acid], the “solubility in water (in words)” value is recorded as “highly soluble in water”.
